In patent US9255295B2, “Method for evaluating the sensitizing potential of a test compound” (IMMUNOSEARCH, priority 2010, dated 2016):

Assays:
[1] = tested on: genes specific for sensitization (BRAK, CTSS, DAPK2, FABP4, HSP27, IL18, HSP90, IL1R2, TPSAB1, CXCR1, DEFB1, DHFR, EHF, IVL, KRT4, MELANA, NGAL, PDZK1IP1, PI3 …); assay: Expression of the other (non-ARE) sensitization-specific genes in EPISKIN reconstructed skin (quantitative RT-PCR); format: cell-based, human
[2] = tested on: ARE gene family (AKR1B10, AKR1C1, AKR1C2, CYP1B1, FTH1P, FTL, G6PD, GCLM, NQO2, SLC7A11, TXNRD1, UGT1A1, UGT1A9, YWHAZ, CD36, CYP1A1, GCLC, HMOX1, NQO1, PSME2 …)
EPISKIN model [3] = tested on: EPISKIN model
Text: (§1) “Sensitizing power” means the ability of a given compound to induce a sensitization reaction according to the concentration of said compound. Sensitizing power is dependent on the quantity of substance necessary to induce sensitization. Thus, the lower the sensitizing quantity necessary to induce a sensitizing response, the stronger the sensitizer is, and vice versa, the higher the sensitizing quantity necessary to induce a sensitizing response, the weaker the sensitizer is.
(§2) Thus, steps 1) and 2) will be done for each of the dilutions.

EPISKIN model [4] = assay: Sensitizing power: sensitizing potential retested at successive dilutions in the EPISKIN model
Text: as §1, §2

## CC(O)C(=O)O (stereo not drawn) [Ac Lactique]
[1]
  SENS >1.3 (number of genes): 1
[2]
  AHR NUMBER OF GENES grade: 0 (key: If the expression is greater than 1.3 compared to the control, a grade of 11s given; if this expression is lower, the grade is 0)
  AHR expression: 0.8
  AKR1B10 NUMBER OF GENES grade: 0 (key: If the expression is greater than 1.3 compared to the control, a grade of 11s given; if this expression is lower, the grade is 0)
  AKR1C1 NUMBER OF GENES grade: 0 (key: If the expression is greater than 1.3 compared to the control, a grade of 11s given; if this expression is lower, the grade is 0)
  AKR1C2 NUMBER OF GENES grade: 0 (key: If the expression is greater than 1.3 compared to the control, a grade of 11s given; if this expression is lower, the grade is 0)
  ARE >1.3 (number of genes): 0
  CYP1B1 NUMBER OF GENES grade: 0 (key: If the expression is greater than 1.3 compared to the control, a grade of 11s given; if this expression is lower, the grade is 0)
  FTH1P NUMBER OF GENES grade: 0 (key: If the expression is greater than 1.3 compared to the control, a grade of 11s given; if this expression is lower, the grade is 0)
  FTL NUMBER OF GENES grade: 0 (key: If the expression is greater than 1.3 compared to the control, a grade of 11s given; if this expression is lower, the grade is 0)
  GCLC NUMBER OF GENES grade: 0 (key: If the expression is greater than 1.3 compared to the control, a grade of 11s given; if this expression is lower, the grade is 0)
  GCLM NUMBER OF GENES grade: 0 (key: If the expression is greater than 1.3 compared to the control, a grade of 11s given; if this expression is lower, the grade is 0)
  GCLM expression: 1.1
  HMOX1 NUMBER OF GENES grade: 0 (key: If the expression is greater than 1.3 compared to the control, a grade of 11s given; if this expression is lower, the grade is 0)
  NQO1 NUMBER OF GENES grade: 0 (key: If the expression is greater than 1.3 compared to the control, a grade of 11s given; if this expression is lower, the grade is 0)
  NQO2 NUMBER OF GENES grade: 0 (key: If the expression is greater than 1.3 compared to the control, a grade of 11s given; if this expression is lower, the grade is 0)
  NQO2 expression: 1.2
  SLC7A11 NUMBER OF GENES grade: 0 (key: If the expression is greater than 1.3 compared to the control, a grade of 11s given; if this expression is lower, the grade is 0)
  SLC7A11 expression: 1.0
  TOTAL ARE (number of genes): 0
  TXNRD1 NUMBER OF GENES grade: 0 (key: If the expression is greater than 1.3 compared to the control, a grade of 11s given; if this expression is lower, the grade is 0)
  UGT1A1 NUMBER OF GENES grade: 0 (key: If the expression is greater than 1.3 compared to the control, a grade of 11s given; if this expression is lower, the grade is 0)
  UGT1A1 expression: 1.3
  UGT1A9 NUMBER OF GENES grade: 0 (key: If the expression is greater than 1.3 compared to the control, a grade of 11s given; if this expression is lower, the grade is 0)
  UGT1A9 expression: 0.8
EPISKIN model [3]
  sensitizing potential (conclusion): Non-sensitizing
EPISKIN model [4]
  NUMBER OF GENES overexpressed, sum column 8: 0
